pIC50: −log10 of the molar value. Like-named read-outs stand apart in the source and are kept apart here.
How the values were obtained:
IP6K1 = IP6K1 (Homo sapiens, UniProt Q92551); settings: Liao 2021; read-out: IC50 as to IP6K1; cited from earlier work
Mtb [1] = test system: Mtb
Mtb [2] = experiment: microbe, parasite or virus in culture; settings: Mycobacterium tuberculosis, Macrophage, in Homo sapiens, 48 h, read-out: reduction of the viability of Mtb
L. monocytogenes = type: cell-based, Listeria monocytogenes
L. pneumophila = type: cell-based, Legionella pneumophila
Mtb [3] = experiment: microbe, parasite or virus in culture; type: cell-based, Mycobacterium tuberculosis
Mtb [4] = experiment: Transmission electron microscopy of Mtb cell envelope thickness; type: cell-based, Mycobacterium tuberculosis; settings: TEM, 1 μg/ml INH and/or 5 μM gallein for 14 days
PPK2 = settings: in Pseudomonas aeruginosa, Neville et al., 2021; cited from earlier work
PPK1 = PPK1 (Pseudomonas aeruginosa, UniProt P0DP44); settings: in Pseudomonas aeruginosa, Neville et al., 2021; cited from earlier work
P. aeruginosa = settings: in Caenorhabditis elegans, Neville et al., 2021; cited from earlier work

Sequence of PPK1 (P0DP44 whole entry): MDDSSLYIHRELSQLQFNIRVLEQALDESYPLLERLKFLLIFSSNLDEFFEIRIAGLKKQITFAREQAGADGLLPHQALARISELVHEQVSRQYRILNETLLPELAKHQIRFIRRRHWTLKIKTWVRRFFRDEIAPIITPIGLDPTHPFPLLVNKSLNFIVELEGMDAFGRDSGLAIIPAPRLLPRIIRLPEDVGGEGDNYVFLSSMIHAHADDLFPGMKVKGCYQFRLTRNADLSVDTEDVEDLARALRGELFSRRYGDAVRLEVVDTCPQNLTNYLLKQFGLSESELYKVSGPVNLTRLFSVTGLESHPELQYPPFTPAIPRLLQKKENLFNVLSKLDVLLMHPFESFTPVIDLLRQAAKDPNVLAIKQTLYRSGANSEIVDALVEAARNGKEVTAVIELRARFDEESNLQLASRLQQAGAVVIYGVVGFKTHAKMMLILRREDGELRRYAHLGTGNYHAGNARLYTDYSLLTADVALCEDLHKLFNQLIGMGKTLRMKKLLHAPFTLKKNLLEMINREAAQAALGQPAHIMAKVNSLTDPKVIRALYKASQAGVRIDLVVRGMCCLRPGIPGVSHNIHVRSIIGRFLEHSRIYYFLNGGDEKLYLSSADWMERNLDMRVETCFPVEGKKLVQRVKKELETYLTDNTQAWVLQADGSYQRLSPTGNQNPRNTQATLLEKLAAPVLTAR
Sequence of IP6K1 (Q92551 whole entry): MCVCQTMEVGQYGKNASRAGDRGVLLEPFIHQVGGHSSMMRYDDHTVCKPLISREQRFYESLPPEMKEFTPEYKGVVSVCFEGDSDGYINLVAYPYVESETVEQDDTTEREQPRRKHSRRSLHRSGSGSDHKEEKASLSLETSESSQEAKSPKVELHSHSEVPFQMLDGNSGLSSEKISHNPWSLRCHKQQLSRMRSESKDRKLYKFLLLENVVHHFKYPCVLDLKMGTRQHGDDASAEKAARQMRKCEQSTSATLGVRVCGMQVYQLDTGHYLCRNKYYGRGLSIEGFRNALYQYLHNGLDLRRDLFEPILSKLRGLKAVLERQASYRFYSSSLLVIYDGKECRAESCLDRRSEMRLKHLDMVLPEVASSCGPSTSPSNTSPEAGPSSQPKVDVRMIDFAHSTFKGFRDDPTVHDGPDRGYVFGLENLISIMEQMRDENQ

| Compound | metabolic activity of macrophages infected with Mtb (human macrophages) | number of ingested Mtb compared to control (Mtb [1]) | number of viable Mtb compared to control (Mtb [1]) | viability of ingested L. monocytogenes compared to control (L. monocytogenes) | viability of ingested L. pneumophila compared to control (L. pneumophila) | Mtb cell envelope thickness (Mtb [4]) | further results |
| --- | --- | --- | --- | --- | --- | --- | --- |
| Cn1sc(=O)n(Cc2ccccc2)c1=O [LI-1753] |  |  |  |  |  |  | pIC50 (IP6K1): 5.67 |
| O=[N+]([O-])c1ccc(CNc2nc(NCc3cccc(C(F)(F)F)c3)nc3[nH]cnc23)cc1 [TNP, N6-[(4-nitrophenyl)methyl]-N2-[[3-(trifluoromethyl)phenyl]methyl]-9H-Purine-2,6-diamine] | did not significantly change | increased | reduced the number of viable Mtb | reduced the viability | reduced the viability |  | metabolic activity of macrophages (human macrophages): reduced the metabolic activity; inhibition at 1 µM (Mtb [2]): ~50% |
| NNC(=O)c1ccncc1 [INH, Isonicotinic acid hydrazide] |  |  |  |  |  | increased | Mtb growth (Mtb [3]): partial but not complete reduction |
| O=C1OC2(c3ccccc31)c1ccc(O)c(O)c1Oc1c2ccc(O)c1O [gallein, 3′,4′,5′,6′-Tetrahydroxyspiro[isobenzofuran-1(3H),9′-(9H)xanthen]-3-one] | did not significantly change | increased | reduced the number of viable Mtb | reduced the viability | reduced the viability | did not significantly affect | metabolic activity of macrophages (human macrophages; human): None of the concentrations of MRS2279 and gallein significantly altered; Mtb growth compared to control (Mtb [3]): slightly slowed growth; inhibition at 50 µM (Mtb [3]; Mycobacterium tuberculosis, 336 h, read-out: inhibition of Mtb growth): ~80%; ingested Mtb viability compared to control (Mtb [1]): decreased ingested Mtb viability; viability of ingested Mtb compared to control (Mtb [1]): reduced the viability; PPK2 enzyme activity (PPK2): inhibits; PPK1 enzyme activity (PPK1): inhibits; virulence of P. aeruginosa (P. aeruginosa): attenuates the virulence |
